Experimental data reported in PMC4184702 (Pharmacology Research & Perspectives, 2014).
pKi: −log10 of the molar value. Entries after “also recorded” stand apart in the source; their conditions may differ.

What was measured:
[1] = test system: NMDA: N-methyl-D-aspartate receptor; experiment: PDSP primary binding, NMDA; details: 10 µM, n = 4
Method: (§1) For experimental details, please refer to the Psychoactive Drug Screening Program (PDSP) web site http://pdsp.med.unc.edu/.
(§2) ^a The default concentration for primary binding experiments is 10 µM (n = 4). ^b Negative inhibition represents a stimulation of binding. ^c BZPR: Benzodiazepine Receptors (rat brain site). ^d DOR: Delta Opioid Receptor; KOR: Kappa Opioid Receptor; MOR: Mu Opioid Receptor. ^e DAT: Dopamine Transporter; NET: Norepinephrine Transporter; SERT: Serotonin Transporter. ^f NMDA: N-methyl-D-aspartate receptor.

Male C57 BL6/J mice = test system: Male C57 BL6/J mice
Method: Male C57 BL6/J (from Jackson Laboratories) mice were used for these studies. Upon receipt at 6 weeks of age, mice were single-housed in OptiMICE ventilated cages and acclimated to the colony room for 1 week prior to beginning of the dosing regimen at 7 weeks of age.
Mice were tested in NSF on day 29 of treatment. Eighteen hours prior to behavioral testing, all food was removed from the home cage. The NSF test was carried out during a 15-min period. The test chamber consists of a rectangular (14″ × 20″ × 6″) plastic box. The chamber floor is covered with bedding (∼0.5″). At the time of testing, animals were placed in the left front corner of the chamber and two food pellets (regular chow) were placed on a laminated white paper circle (13 cm in diameter) positioned in the center of the test chamber. The latency to eat is defined by the animal holding the food with one or both paws and taking a bite of the pellet and staying in the center eating for at least 5 sec. The mice were videotaped and tapes were scored by two trained observers blind to the treatments. […] Upon completion of NSF, about 50 60 min after the pretreatment, mice were decapitated and all animals from all treatment groups except from the imipramine group were processed for collection of trunk blood and whole-brain tissue. […]

Male Balb/CJ mice = experiment: Forced swim test; format: in vivo, mouse
Description: Male Balb/CJ mice (Jackson Laboratories, Bar Harbor, ME) were used in the forced swim test (FST). Upon receipt, mice were assigned unique identification numbers (tail marked) and were group-housed in OptiMICE ventilated cages. Mice were acclimated to the colony room for at least 1 week prior to drug administration. Mice were 8–10 weeks of age at time of FST.
Procedures have been previously described (Porsolt et al. [1977]). Naïve mice were individually placed into clear glass cylinders (15 cm tall × 10 cm wide, 1 L beakers) containing 23 ± 1°C water 12 cm deep (∼800 mL). […] Thirty minutes following the administration, mice were placed in the water, and the time the animal spent immobile was recorded over a 6-min trial. Immobility was defined as the postural position of floating in the water. Only one session is required for the forced swim test in mice.

α7 nAChR = details: ref Yu et al. [2012], cited from earlier work
5-HT3 = target: T1, 5-HT3 (Homo sapiens, UniProt P46098); experiment: PDSP primary binding, 5-HT3; details: n = 4, read-out: Inhibition (primary binding competition efficacy), 5-HT3
T1 construct: purchased NIMH Psychoactive Drug Screening Program (PDSP)
Method: as §1, §2

T1 sequence (P46098 24-478): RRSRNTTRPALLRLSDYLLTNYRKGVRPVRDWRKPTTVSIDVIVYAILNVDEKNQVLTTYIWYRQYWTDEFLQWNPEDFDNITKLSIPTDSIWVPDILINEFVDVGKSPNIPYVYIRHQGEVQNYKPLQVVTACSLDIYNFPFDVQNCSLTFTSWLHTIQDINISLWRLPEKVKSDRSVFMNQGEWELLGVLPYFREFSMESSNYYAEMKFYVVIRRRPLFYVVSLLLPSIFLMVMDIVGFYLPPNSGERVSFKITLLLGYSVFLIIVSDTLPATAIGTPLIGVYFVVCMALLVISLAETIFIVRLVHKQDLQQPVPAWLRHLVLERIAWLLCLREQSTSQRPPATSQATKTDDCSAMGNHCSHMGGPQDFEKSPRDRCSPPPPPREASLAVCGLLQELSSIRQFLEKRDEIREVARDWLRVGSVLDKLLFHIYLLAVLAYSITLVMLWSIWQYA

SMILES: OCCc1cc(-c2cncc(OC[C@@H]3CCN3)c2)on1 [LF-3-88, 2-[5-[5-(2(S)-azetidinylmethoxyl)-3-pyridyl]-3-isoxazolyl]ethanol]
- Inhibition (primary binding competition efficacy), NMDA [1]: -4.7%
- treatment effect on body weight (Male C57 BL6/J mice; 4-week administration): did not find a significant treatment effect
- behavioral changes / tolerability in NSF paradigm (Male C57 BL6/J mice; 28 days oral administration, 5 and 10 mg/kg): No obvious behavioral changes
- immobility in forced swim test (Male Balb/CJ mice; 1, 3, and 10 mg/kg, p.o.): decreased immobility; also recorded: reduce the immobility dose-dependently
- immobility in forced swim test (Male Balb/CJ mice; 1 and 3 mg/kg, i.p., 30 min pretreatment, 6-min trial, vs water): decreased immobility; also recorded: dose-dependently reduced immobility
- minimum effective dose in forced swim test (Male Balb/CJ mice; i.p.): 1 mg/kg
- Ki α7 (α7 nAChR; class symbol): NA ^4 (NA: not active, defined as < 50% binding in the primary assay at 10 μmol/L)
- pKi (α7 nAChR; read-out: Ki α7-nAChRs): < 5.00
- inhibition at 10 µM (5-HT3): -1%
